pIC50: −log10 of the molar value. Read-outs that look alike come from different tables or passages of the source.
Tests used:
Experiment in all cases: SelectScreen kinase assay
ACVR2A = ACVR2A (Homo sapiens, UniProt P27037)
Experimental: (§1) Selectivity profiling assays were performed by the Invitrogen SelectScreen™ Services. […] The concentration of ATP was selected to be equal to the KM, unless indicated otherwise.

BRSK2 = biological target: T1, BRSK2 (Homo sapiens, UniProt Q8IWQ3)
T1 sequence (Q8IWQ3 1-736): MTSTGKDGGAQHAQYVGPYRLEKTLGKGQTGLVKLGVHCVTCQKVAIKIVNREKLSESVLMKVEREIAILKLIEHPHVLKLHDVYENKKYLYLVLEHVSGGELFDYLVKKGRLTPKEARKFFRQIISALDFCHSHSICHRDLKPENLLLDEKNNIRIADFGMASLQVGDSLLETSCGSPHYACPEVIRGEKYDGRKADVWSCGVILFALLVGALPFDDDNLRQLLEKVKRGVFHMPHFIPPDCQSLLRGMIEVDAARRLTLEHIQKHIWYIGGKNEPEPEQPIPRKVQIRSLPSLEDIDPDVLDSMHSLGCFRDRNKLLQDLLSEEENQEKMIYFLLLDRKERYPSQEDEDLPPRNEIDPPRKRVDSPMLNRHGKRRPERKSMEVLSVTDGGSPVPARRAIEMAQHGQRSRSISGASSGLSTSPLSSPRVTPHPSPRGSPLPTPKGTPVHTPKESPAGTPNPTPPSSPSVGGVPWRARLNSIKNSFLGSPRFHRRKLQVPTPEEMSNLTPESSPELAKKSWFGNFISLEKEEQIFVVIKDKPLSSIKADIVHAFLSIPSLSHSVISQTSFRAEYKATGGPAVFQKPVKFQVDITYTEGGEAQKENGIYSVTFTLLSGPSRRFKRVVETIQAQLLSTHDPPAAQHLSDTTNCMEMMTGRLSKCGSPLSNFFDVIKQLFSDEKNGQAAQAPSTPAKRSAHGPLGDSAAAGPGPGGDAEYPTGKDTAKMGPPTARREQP
Experimental: as §1

CLK4 = CLK4 (Homo sapiens, UniProt Q9HAZ1)
Experimental: as §1

LCK = LCK (Homo sapiens, UniProt P06239)
Experimental: as §1

MAP4K5 (KHS1) = MAP4K5 (KHS1) (Homo sapiens, UniProt Q9Y4K4); conditions: 1 h, 1 μM WEL028, 1 h preincubation
Experimental: as §1

NUAK1 (ARK5) = biological target: T2, NUAK1 (ARK5) (Homo sapiens, UniProt O60285)
T2 sequence (O60285 1-661): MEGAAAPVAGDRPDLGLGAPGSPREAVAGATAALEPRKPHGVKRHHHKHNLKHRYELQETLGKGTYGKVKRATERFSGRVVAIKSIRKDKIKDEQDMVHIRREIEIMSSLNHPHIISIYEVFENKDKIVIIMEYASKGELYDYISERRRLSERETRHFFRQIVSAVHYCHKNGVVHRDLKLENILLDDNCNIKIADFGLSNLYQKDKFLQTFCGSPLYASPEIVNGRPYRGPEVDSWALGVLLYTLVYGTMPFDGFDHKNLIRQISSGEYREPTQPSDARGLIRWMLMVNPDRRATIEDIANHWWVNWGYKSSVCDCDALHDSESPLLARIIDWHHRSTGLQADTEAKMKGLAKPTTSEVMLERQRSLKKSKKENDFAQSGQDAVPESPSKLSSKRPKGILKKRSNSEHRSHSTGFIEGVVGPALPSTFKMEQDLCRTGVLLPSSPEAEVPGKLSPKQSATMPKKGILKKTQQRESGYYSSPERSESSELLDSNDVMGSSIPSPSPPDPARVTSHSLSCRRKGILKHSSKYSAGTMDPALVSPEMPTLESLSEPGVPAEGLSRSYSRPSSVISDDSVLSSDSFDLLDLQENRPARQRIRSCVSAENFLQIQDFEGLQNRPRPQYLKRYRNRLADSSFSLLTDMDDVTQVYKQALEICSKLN
Experimental: as §1

PAK6 = PAK6 (Homo sapiens, UniProt Q9NQU5); conditions: 1 h, 1 μM WEL028, 1 h preincubation
Experimental: as §1

PDGFRA (PDGFR alpha) = PDGFRA (PDGFR alpha) (Homo sapiens, UniProt P16234)
Experimental: as §1

PLK1 = PLK1 (Homo sapiens, UniProt P53350)
Experimental: as §1

WEE1 = WEE1 (Homo sapiens, UniProt P30291)
Experimental: as §1

[1] = 1 h, 1 μM WEL028, 1 h preincubation
[2] = IC50 on that kinase divided by IC50 on FES^S700C

Chain of LCK (P06239 whole entry): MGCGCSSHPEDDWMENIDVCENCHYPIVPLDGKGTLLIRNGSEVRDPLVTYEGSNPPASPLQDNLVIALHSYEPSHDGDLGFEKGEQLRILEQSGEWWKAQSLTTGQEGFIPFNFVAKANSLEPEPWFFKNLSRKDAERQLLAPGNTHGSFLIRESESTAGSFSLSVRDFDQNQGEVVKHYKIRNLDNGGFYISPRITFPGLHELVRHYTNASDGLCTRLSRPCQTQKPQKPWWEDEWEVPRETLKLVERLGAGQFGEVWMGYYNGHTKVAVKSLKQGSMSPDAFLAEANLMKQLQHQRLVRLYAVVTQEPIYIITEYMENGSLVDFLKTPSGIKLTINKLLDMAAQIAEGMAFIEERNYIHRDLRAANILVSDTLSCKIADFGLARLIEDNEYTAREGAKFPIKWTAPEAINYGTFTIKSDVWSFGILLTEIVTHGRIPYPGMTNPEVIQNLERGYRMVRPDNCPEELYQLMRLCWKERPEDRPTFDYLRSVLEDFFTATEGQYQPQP
Chain of PDGFRA (PDGFR alpha) (P16234 24-1089, species assumed): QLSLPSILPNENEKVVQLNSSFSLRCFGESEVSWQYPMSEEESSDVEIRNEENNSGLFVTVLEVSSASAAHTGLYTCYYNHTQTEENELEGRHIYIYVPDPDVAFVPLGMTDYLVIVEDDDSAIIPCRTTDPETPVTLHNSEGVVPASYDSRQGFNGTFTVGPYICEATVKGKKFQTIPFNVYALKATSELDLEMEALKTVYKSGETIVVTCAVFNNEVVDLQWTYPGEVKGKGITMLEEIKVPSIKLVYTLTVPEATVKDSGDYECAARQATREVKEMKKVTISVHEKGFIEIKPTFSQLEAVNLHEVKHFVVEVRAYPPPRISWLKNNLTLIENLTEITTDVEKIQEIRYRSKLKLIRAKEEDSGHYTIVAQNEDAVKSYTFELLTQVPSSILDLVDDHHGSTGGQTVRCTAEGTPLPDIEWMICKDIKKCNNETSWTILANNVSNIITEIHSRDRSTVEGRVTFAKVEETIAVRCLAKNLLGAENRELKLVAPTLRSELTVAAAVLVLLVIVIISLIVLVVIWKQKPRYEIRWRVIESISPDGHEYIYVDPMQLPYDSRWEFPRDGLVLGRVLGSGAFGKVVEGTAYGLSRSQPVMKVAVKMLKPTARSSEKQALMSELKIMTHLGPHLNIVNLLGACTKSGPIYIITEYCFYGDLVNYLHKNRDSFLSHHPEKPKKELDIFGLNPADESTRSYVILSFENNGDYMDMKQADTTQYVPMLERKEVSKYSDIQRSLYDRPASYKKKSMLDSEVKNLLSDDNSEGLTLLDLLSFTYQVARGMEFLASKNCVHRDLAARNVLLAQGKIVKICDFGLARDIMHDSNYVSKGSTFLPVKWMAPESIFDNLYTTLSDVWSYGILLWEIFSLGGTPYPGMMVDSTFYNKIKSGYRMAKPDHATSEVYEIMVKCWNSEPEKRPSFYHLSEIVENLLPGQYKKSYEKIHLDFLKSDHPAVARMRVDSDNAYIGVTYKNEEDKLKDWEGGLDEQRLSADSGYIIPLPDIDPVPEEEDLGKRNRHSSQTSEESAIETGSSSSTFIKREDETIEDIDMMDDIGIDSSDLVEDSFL
Chain of PLK1 (P53350 whole entry): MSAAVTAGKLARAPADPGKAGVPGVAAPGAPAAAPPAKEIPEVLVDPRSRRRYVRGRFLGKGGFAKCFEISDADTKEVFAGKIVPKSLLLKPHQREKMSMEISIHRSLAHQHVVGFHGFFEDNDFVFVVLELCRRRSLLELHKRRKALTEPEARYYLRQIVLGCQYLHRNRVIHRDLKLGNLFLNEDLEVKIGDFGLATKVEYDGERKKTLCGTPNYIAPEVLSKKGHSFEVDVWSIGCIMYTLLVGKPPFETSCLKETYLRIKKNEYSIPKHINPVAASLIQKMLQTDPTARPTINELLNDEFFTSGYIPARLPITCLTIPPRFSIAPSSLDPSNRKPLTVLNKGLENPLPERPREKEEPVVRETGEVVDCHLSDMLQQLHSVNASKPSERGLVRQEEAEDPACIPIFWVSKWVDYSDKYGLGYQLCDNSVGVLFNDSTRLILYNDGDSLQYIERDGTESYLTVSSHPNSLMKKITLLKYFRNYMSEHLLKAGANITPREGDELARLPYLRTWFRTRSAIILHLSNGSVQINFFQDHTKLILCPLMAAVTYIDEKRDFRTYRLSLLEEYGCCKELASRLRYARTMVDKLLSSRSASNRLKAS
Chain of ACVR2A (P27037 20-513): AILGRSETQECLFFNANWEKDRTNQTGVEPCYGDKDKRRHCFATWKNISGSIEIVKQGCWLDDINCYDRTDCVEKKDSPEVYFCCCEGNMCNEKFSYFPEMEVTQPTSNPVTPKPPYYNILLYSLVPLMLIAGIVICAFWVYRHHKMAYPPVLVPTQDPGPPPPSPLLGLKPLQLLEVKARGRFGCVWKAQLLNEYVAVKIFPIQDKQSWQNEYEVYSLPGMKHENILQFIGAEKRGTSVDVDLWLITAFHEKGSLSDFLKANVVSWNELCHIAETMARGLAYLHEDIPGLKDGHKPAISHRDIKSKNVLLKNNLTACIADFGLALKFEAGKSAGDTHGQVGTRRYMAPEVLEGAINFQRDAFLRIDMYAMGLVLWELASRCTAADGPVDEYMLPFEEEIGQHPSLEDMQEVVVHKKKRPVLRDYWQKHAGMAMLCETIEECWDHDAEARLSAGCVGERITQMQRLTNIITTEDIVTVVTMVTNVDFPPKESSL
Chain of CLK4 (Q9HAZ1 whole entry, species assumed): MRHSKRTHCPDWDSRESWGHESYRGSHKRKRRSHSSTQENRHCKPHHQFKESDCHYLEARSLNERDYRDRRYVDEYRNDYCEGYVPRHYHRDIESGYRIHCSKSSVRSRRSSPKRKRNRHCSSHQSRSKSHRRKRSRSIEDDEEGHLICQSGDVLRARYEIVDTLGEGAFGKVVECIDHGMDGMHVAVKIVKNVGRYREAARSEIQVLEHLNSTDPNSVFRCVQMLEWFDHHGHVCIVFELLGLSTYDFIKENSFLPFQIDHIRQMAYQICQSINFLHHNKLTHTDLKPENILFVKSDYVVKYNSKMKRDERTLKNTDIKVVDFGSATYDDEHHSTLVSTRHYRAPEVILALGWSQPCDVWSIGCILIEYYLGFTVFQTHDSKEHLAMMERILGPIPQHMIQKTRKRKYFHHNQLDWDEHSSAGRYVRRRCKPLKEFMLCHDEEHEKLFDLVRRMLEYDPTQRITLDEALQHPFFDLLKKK
Chain of WEE1 (P30291 whole entry): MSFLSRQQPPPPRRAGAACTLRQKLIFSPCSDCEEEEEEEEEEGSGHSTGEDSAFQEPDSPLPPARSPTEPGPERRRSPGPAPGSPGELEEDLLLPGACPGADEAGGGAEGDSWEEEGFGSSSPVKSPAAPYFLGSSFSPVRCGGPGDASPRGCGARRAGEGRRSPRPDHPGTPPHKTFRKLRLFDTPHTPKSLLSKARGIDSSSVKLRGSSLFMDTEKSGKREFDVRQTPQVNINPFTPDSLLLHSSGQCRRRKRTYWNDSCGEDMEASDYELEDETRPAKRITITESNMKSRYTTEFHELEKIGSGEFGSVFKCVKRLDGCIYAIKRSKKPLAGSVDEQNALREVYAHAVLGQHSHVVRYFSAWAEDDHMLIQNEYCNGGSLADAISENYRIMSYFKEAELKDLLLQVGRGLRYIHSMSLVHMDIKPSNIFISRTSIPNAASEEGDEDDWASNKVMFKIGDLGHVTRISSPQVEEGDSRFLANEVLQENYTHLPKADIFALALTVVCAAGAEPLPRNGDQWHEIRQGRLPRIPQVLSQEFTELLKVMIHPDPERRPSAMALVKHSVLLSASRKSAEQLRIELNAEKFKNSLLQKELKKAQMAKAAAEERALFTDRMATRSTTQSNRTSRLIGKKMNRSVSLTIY
Chain of MAP4K5 (KHS1) (Q9Y4K4 whole entry): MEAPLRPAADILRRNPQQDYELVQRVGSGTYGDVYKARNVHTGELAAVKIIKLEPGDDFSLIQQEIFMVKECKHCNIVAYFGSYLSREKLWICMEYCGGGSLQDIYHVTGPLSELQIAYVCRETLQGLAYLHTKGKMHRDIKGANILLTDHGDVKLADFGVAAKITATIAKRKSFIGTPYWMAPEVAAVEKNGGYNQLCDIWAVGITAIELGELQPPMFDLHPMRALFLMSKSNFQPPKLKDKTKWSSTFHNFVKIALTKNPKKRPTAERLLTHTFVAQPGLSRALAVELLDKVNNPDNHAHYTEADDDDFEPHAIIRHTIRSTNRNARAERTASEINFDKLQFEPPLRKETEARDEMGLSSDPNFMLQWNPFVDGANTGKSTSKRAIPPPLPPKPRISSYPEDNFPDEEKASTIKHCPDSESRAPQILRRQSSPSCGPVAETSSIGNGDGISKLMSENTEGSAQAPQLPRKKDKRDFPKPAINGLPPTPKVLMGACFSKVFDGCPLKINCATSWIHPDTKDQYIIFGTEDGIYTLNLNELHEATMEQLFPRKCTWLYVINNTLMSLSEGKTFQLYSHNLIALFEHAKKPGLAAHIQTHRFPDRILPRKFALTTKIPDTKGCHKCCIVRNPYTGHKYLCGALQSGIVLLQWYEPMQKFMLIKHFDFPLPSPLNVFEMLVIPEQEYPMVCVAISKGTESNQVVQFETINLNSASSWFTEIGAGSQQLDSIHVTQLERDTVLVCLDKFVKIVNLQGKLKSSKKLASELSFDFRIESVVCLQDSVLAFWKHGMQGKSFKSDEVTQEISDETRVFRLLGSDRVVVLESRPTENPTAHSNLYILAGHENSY

Question: With C#CCOc1ccc(Nc2ncc(Cl)c(Nc3ccccc3NC(=O)C=C)n2)c(OC)c1 [Compound 6] as the molecule, how does the inhibition at 1 µM (ACVR2A; [1]) read?
Answer: 5%

Question: What about the “Inhibition at 1 µM (%)” value (ACVR2A; ACVR2A, 1 µM, LanthaScreen Binding, listed as WEL028, 1 µM) of the same molecule?
Answer: 6%

Question: And the inhibition at 1 µM (ACVR2A; read-out: Inhibition at 1 µM (%), ACVR2A, 1 µM, LanthaScreen Binding)?
Answer: 4%

Question: What about the inhibition at 1 µM (BRSK2; [1]) of the same molecule?
Answer: 7%

Question: What about the “Inhibition at 1 µM (%)” value (BRSK2; BRSK2, 1 µM, LanthaScreen Binding, listed as WEL028, 1 µM) of the same molecule?
Answer: 8%

Question: And the inhibition at 1 µM (BRSK2; read-out: Inhibition at 1 µM (%), BRSK2, 1 µM, LanthaScreen Binding)?
Answer: 7%

Question: And the pIC50 (CLK4)?
Answer: 5.90

Question: And the inhibition at 1 µM (CLK4; [1])?
Answer: 53%

Question: And the inhibition at 10 µM (CLK4; 1 h, log[inhibitor] (M) -5.00, LanthaScreen Binding)?
Answer: 30%

Question: And the inhibition at 3.311 µM (CLK4; 1 h, log[inhibitor] (M) -5.48, LanthaScreen Binding)?
Answer: 55%

Question: What about the inhibition at 1.122 µM (CLK4; 1 h, log[inhibitor] (M) -5.95, LanthaScreen Binding) of the same molecule?
Answer: 64%

Question: And the inhibition at 0.3715 µM (CLK4; 1 h, log[inhibitor] (M) -6.43, LanthaScreen Binding)?
Answer: 39%

Question: What about the inhibition at 0.123 µM (CLK4; 1 h, log[inhibitor] (M) -6.91, LanthaScreen Binding) of the same molecule?
Answer: 26%

Question: And the inhibition at 0.0138 µM (CLK4; 1 h, log[inhibitor] (M) -7.86, LanthaScreen Binding)?
Answer: 15%

Question: And the inhibition at 0.001514 µM (CLK4; 1 h, log[inhibitor] (M) -8.82, LanthaScreen Binding)?
Answer: 11%

Question: What about the inhibition at 0.004571 µM (CLK4; 1 h, log[inhibitor] (M) -[…], LanthaScreen Binding) of the same molecule?
Answer: 8%

Question: What about the “Inhibition at 1 µM (%)” value (CLK4; CLK4, 1 µM, LanthaScreen Binding, listed as WEL028, 1 µM) of the same molecule?
Answer: 52%

Question: What about the Apparent fold selectivity (CLK4; [2]) of the same molecule?
Answer: 272 fold

Question: What about the inhibition at 1 µM (CLK4; read-out: Inhibition at 1 µM (%), CLK4, 1 µM, LanthaScreen Binding) of the same molecule?
Answer: 54%

Question: And the inhibition at 1 µM (LCK; [1])?
Answer: 5%

Question: What about the “Inhibition at 1 µM (%)” value (LCK; LCK, 1 µM, ZLYTE, ATP Km app, listed as WEL028, 1 µM) of the same molecule?
Answer: 6%

Question: And the inhibition at 1 µM (LCK; read-out: Inhibition at 1 µM (%), LCK, 1 µM, ZLYTE, ATP Km app)?
Answer: 4%

Question: And the inhibition at 1 µM (MAP4K5 (KHS1))?
Answer: -5%

Question: What about the “Inhibition (%)” value (NUAK1 (ARK5); 1 μM WEL028, 1 h preincubation) of the same molecule?
Answer: 35%

Question: And the “Inhibition at 1 µM (%)” value (NUAK1 (ARK5); NUAK1 (ARK5), 1 µM, Adapta, ATP Km app, listed as WEL028, 1 µM)?
Answer: 41%

Question: What about the inhibition at 1 µM (NUAK1 (ARK5); read-out: Inhibition at 1 µM (%), NUAK1 (ARK5), 1 µM, Adapta, ATP Km app) of the same molecule?
Answer: 30%

Question: And the inhibition at 1 µM (PAK6)?
Answer: -7%

Question: What about the pIC50 (PDGFRA (PDGFR alpha)) of the same molecule?
Answer: 6.10

Question: What about the inhibition at 1 µM (PDGFRA (PDGFR alpha); [1]) of the same molecule?
Answer: 63%

Question: What about the inhibition at 10 µM (PDGFRA (PDGFR alpha); 1 h, log[inhibitor] (M) -5.00, ZLYTE, ATP Km app) of the same molecule?
Answer: 90%

Question: What about the inhibition at 3.31 µM (PDGFRA (PDGFR alpha); 1 h, log[inhibitor] (M) -5.48, ZLYTE, ATP Km app) of the same molecule?
Answer: 93%

Question: What about the inhibition at 1.12 µM (PDGFRA (PDGFR alpha); 1 h, log[inhibitor] (M) -5.95, ZLYTE, ATP Km app) of the same molecule?
Answer: 61%

Question: And the inhibition at 0.372 µM (PDGFRA (PDGFR alpha); 1 h, log[inhibitor] (M) -6.43, ZLYTE, ATP Km app)?
Answer: 22%

Question: And the inhibition at 0.123 µM (PDGFRA (PDGFR alpha); 1 h, log[inhibitor] (M) -6.91, ZLYTE, ATP Km app)?
Answer: 7%

Question: And the Apparent fold selectivity (PDGFRA (PDGFR alpha); [2])?
Answer: 184 fold

Question: What about the “Inhibition at 1 µM (%)” value (PDGFRA (PDGFR alpha); PDGFRA (PDGFR alpha), 1 µM, ZLYTE, ATP Km app, listed as WEL028, 1 µM) of the same molecule?
Answer: 58%

Question: What about the inhibition at 1 µM (PDGFRA (PDGFR alpha); read-out: Inhibition at 1 µM (%), PDGFRA (PDGFR alpha), 1 µM, ZLYTE, ATP Km app) of the same molecule?
Answer: 68%

Question: And the inhibition at 1 µM (PLK1; [1])?
Answer: 12%

Question: What about the “Inhibition at 1 µM (%)” value (PLK1; PLK1, 1 µM, ZLYTE, ATP Km app, listed as WEL028, 1 µM) of the same molecule?
Answer: 8%

Question: And the inhibition at 1 µM (PLK1; read-out: Inhibition at 1 µM (%), PLK1, 1 µM, ZLYTE, ATP Km app)?
Answer: 15%

Question: What about the “Inhibition at 1 µM (%)” value (WEE1; 1 µM, LanthaScreen Binding) of the same molecule?
Answer: -14%

Question: What about the inhibition at 1 µM (WEE1; [1]) of the same molecule?
Answer: -5%
